Measured values reported in PubChem BioAssay AID248 (DTP/NCI, 2004).
Where “and” joins values, the source holds several entries; their conditions need not be identical. Identical values can stand only once. Toxic doses and inconclusive results are not listed.

Tested on: L1210 leukemia ip in BDF1 mice, survival T/C
Experiment: NCI In Vivo Anticancer Drug Screen. Data for tumor model L1210 Leukemia (intraperitoneal) in B6D2F1 (BDF1) mice
Conditions: endpoint: mean survival time, higher = longer survival
Outline: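 Antitumor effect is assessed in tumor-bearing animals. Survival in the compound arm is compared with a vehicle-dosed control arm and expressed as their quotient.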

[1] = dose: 100.0 mg/kg/injection, schedule: Q01DX009 (ip), vehicle: Klucel (hydroxypropylcellulose) (HPC)
[2] = dose: 100.0 mg/kg/injection, schedule: Q01DX009 (ip), vehicle: saline
[3] = dose: 100.0 mg/kg/injection, schedule: Q04DX003 (ip), vehicle: Klucel (hydroxypropylcellulose) (HPC)
[4] = dose: 100.0 mg/kg/injection, schedule: Q04DX003 (ip), vehicle: saline
[5] = dose: 200.0 mg/kg/injection, schedule: Q01DX009 (ip), vehicle: Klucel (hydroxypropylcellulose) (HPC)
[6] = dose: 200.0 mg/kg/injection, schedule: Q04DX003 (ip), vehicle: Klucel (hydroxypropylcellulose) (HPC)
[7] = dose: 200.0 mg/kg/injection, schedule: Q04DX003 (ip), vehicle: saline
[8] = dose: 400.0 mg/kg/injection, schedule: Q01DX009 (ip), vehicle: Klucel (hydroxypropylcellulose) (HPC)
[9] = dose: 400.0 mg/kg/injection, schedule: Q04DX003 (ip), vehicle: Klucel (hydroxypropylcellulose) (HPC)
[10] = dose: 400.0 mg/kg/injection, schedule: Q04DX003 (ip), vehicle: saline
[11] = dose: 100.0 mg/kg/injection, schedule: Q01DX001 (ip), vehicle: saline
[12] = dose: 200.0 mg/kg/injection, schedule: Q01DX001 (ip), vehicle: saline

O=c1cc(CO)[nH]cc1O
T/C (dose: 25.0 mg/kg/injection, schedule: Q01DX Z (ip), vehicle: methylcellulose (MC)): 102 % of control
T/C (dose: 50.0 mg/kg/injection, schedule: Q01DX015 (ip), vehicle: carboxymethylcellulose (CMC)): 103 % of control
T/C (dose: 50.0 mg/kg/injection, schedule: Q01DX Z (ip), vehicle: methylcellulose (MC)): 96 % of control
T/C (dose: 62.5 mg/kg/injection, schedule: Q01DX015 (ip), vehicle: saline): 115 % of control
T/C (dose: 78.0 mg/kg/injection, schedule: Q01DX Z (ip), vehicle: carboxymethylcellulose (CMC)): 98 % of control and 112 % of control
T/C (dose: 78.0 mg/kg/injection, schedule: Q01DX Z (ip), vehicle: saline): 96 % of control and 114 % of control
T/C (dose: 100.0 mg/kg/injection, schedule: Q01DX001 (ip), vehicle: Klucel (hydroxypropylcellulose) (HPC)): 106 % of control
T/C [1]: 110 % of control and 121 % of control
T/C [2]: 121 % of control
T/C (dose: 100.0 mg/kg/injection, schedule: Q01DX015 (ip), vehicle: carboxymethylcellulose (CMC)): 108 % of control
T/C (dose: 100.0 mg/kg/injection, schedule: Q01DX Z (ip), vehicle: methylcellulose (MC)): 101 % of control
T/C [3]: 110 % of control
T/C [4]: 106 % of control
T/C (dose: 117.0 mg/kg/injection, schedule: Q01DX Z (ip), vehicle: carboxymethylcellulose (CMC)): 104 % of control and 121 % of control
T/C (dose: 117.0 mg/kg/injection, schedule: Q01DX Z (ip), vehicle: methylcellulose (MC)): 110 % of control
T/C (dose: 117.0 mg/kg/injection, schedule: Q01DX Z (ip), vehicle: saline): 110 % of control and 120 % of control
T/C (dose: 125.0 mg/kg/injection, schedule: Q01DX001 (ip), vehicle: carboxymethylcellulose (CMC)): 104 % of control and 106 % of control
T/C (dose: 125.0 mg/kg/injection, schedule: Q01DX015 (ip), vehicle: saline): 113 % of control
T/C (dose: 125.0 mg/kg/injection, schedule: Q## X001 (ip), vehicle: carboxymethylcellulose (CMC)): 100 % of control
T/C (dose: 175.0 mg/kg/injection, schedule: Q01DX Z (ip), vehicle: carboxymethylcellulose (CMC)): 109 % of control
T/C (dose: 175.0 mg/kg/injection, schedule: Q01DX Z (ip), vehicle: methylcellulose (MC)): 96 % of control
T/C (dose: 175.0 mg/kg/injection, schedule: Q01DX Z (ip), vehicle: saline): 113 % of control
T/C (dose: 177.0 mg/kg/injection, schedule: Q01DX009 (ip), vehicle: Klucel (hydroxypropylcellulose) (HPC)): 121 % of control
T/C (dose: 200.0 mg/kg/injection, schedule: Q01DX001 (ip), vehicle: Klucel (hydroxypropylcellulose) (HPC)): 110 % of control
T/C [5]: 151 % of control
T/C [6]: 122 % of control
T/C [7]: 115 % of control
T/C (dose: 250.0 mg/kg/injection, schedule: Q01DX001 (ip), vehicle: carboxymethylcellulose (CMC)): 97 % of control and 101 % of control
T/C (dose: 250.0 mg/kg/injection, schedule: Q01DX015 (ip), vehicle: saline): 159 % of control
T/C (dose: 250.0 mg/kg/injection, schedule: Q## X001 (ip), vehicle: carboxymethylcellulose (CMC)): 106 % of control
T/C (dose: 263.0 mg/kg/injection, schedule: Q01DX Z (ip), vehicle: carboxymethylcellulose (CMC)): 124 % of control
T/C (dose: 263.0 mg/kg/injection, schedule: Q01DX Z (ip), vehicle: methylcellulose (MC)): 110 % of control
T/C (dose: 264.0 mg/kg/injection, schedule: Q01DX008 (ip), vehicle: saline): 106 % of control
T/C (dose: 264.0 mg/kg/injection, schedule: Q01DX009 (ip), vehicle: saline): 101 % of control
T/C (dose: 393.0 mg/kg/injection, schedule: Q01DX Z (ip), vehicle: methylcellulose (MC)): 116 % of control
T/C (dose: 400.0 mg/kg/injection, schedule: Q01DX001 (ip), vehicle: Klucel (hydroxypropylcellulose) (HPC)): 112 % of control
T/C (dose: 400.0 mg/kg/injection, schedule: Q01DX008 (ip), vehicle: saline): 116 % of control
T/C [8]: 156 % of control
T/C [9]: 122 % of control
T/C [10]: 112 % of control
T/C (dose: 500.0 mg/kg/injection, schedule: Q01DX001 (ip), vehicle: carboxymethylcellulose (CMC)): 95 % of control and 111 % of control
T/C (dose: 500.0 mg/kg/injection, schedule: Q01DX015 (ip), vehicle: saline): 165 % of control
T/C (dose: 500.0 mg/kg/injection, schedule: Q01DX Z (ip), vehicle: methylcellulose (MC)): 106 % of control
T/C (dose: 500.0 mg/kg/injection, schedule: Q## X001 (ip), vehicle: carboxymethylcellulose (CMC)): 101 % of control
T/C (dose: 590.0 mg/kg/injection, schedule: Q01DX Z (ip), vehicle: carboxymethylcellulose (CMC)): 105 % of control
T/C (dose: 625.0 mg/kg/injection, schedule: Q01DX Z (ip), vehicle: methylcellulose (MC)): 108 % of control
T/C (dose: 750.0 mg/kg/injection, schedule: Q01DX Z (ip), vehicle: methylcellulose (MC)): 120 % of control
T/C (dose: 1000.0 mg/kg/injection, schedule: Q01DX001 (ip), vehicle: carboxymethylcellulose (CMC)): 102 % of control and 105 % of control
T/C (dose: 1000.0 mg/kg/injection, schedule: Q## X001 (ip), vehicle: carboxymethylcellulose (CMC)): 108 % of control

O=[N+]([O-])c1ccc(O)c(/C=N/N2CCN(/N=C/c3cc([N+](=O)[O-])ccc3O)CC2)c1
T/C [11]: 91 % of control
T/C [12]: 97 % of control
T/C (dose: 400.0 mg/kg/injection, schedule: Q01DX001 (ip), vehicle: saline): 97 % of control

CC1(C)CC(=O)c2c(cc3c(c2O)C(=O)CC(C)(C)O3)O1
T/C [2]: 94 % of control
T/C [4]: 100 % of control
T/C (dose: 200.0 mg/kg/injection, schedule: Q01DX009 (ip), vehicle: saline): 94 % of control
T/C [7]: 94 % of control
T/C (dose: 400.0 mg/kg/injection, schedule: Q01DX009 (ip), vehicle: saline): 95 % of control
T/C [10]: 106 % of control

CN(Cc1ccccc1Cl)C(=S)NC1CCCCC1
T/C [1]: 92 % of control
T/C [5]: 93 % of control
T/C [8]: 93 % of control

O=[N+]([O-])c1cccc(C=Nc2cccc([N+](=O)[O-])c2)c1
T/C (dose: 100.0 mg/kg/injection, schedule: Q04DX003 (ip), vehicle: gum acacia): 95 % of control
T/C (dose: 200.0 mg/kg/injection, schedule: Q04DX003 (ip), vehicle: gum acacia): 93 % of control
T/C (dose: 400.0 mg/kg/injection, schedule: Q04DX003 (ip), vehicle: gum acacia): 98 % of control

Clc1nc(Cl)c2c(n1)NCCN2
T/C (dose: 50.0 mg/kg/injection, schedule: Q01DX009 (ip), vehicle: Klucel (hydroxypropylcellulose) (HPC)): 106 % of control
T/C [1]: 103 % of control

CN(C)c1ccc(/C=C2\SC(=S)N(c3ccccc3)C2=O)cc1
T/C (dose: 50.0 mg/kg/injection, schedule: Q01DX009 (ip), vehicle: saline with Tween-80): 96 % of control
T/C (dose: 100.0 mg/kg/injection, schedule: Q01DX009 (ip), vehicle: saline with Tween-80): 103 % of control
T/C (dose: 200.0 mg/kg/injection, schedule: Q01DX009 (ip), vehicle: saline with Tween-80): 100 % of control

CCCCCCCCCCCCCCCCC1=NCCN1
T/C (dose: 5.0 mg/kg/injection, schedule: Q01DX009 (ip), vehicle: saline): 91 % of control
T/C (dose: 10.0 mg/kg/injection, schedule: Q01DX001 (ip), vehicle: saline): 94 % of control
T/C (dose: 10.0 mg/kg/injection, schedule: Q01DX009 (ip), vehicle: saline): 91 % of control
T/C (dose: 10.0 mg/kg/injection, schedule: Q04DX003 (ip), vehicle: saline): 94 % of control
T/C (dose: 20.0 mg/kg/injection, schedule: Q01DX001 (ip), vehicle: saline): 97 % of control
T/C (dose: 20.0 mg/kg/injection, schedule: Q01DX009 (ip), vehicle: saline): 88 % of control
T/C (dose: 20.0 mg/kg/injection, schedule: Q04DX003 (ip), vehicle: saline): 93 % of control and 90 % of control
T/C (dose: 40.0 mg/kg/injection, schedule: Q01DX001 (ip), vehicle: saline): 101 % of control
T/C (dose: 40.0 mg/kg/injection, schedule: Q04DX003 (ip), vehicle: saline): 95 % of control and 88 % of control

Cc1cccc(Cl)c1NC(=O)CN(C)C
T/C [11]: 104 % of control
T/C [12]: 98 % of control

O=[N+]([O-])c1ccc(OC(=S)Cl)cc1
T/C (dose: 6.25 mg/kg/injection, schedule: Q04DX002 (ip), vehicle: saline with Tween-80): 99 % of control
T/C (dose: 12.5 mg/kg/injection, schedule: Q04DX002 (ip), vehicle: saline with Tween-80): 101 % of control
T/C (dose: 25.0 mg/kg/injection, schedule: Q04DX002 (ip), vehicle: saline with Tween-80): 96 % of control
T/C (dose: 100.0 mg/kg/injection, schedule: Q04DX003 (ip), vehicle: saline with Tween-80): 103 % of control

Cc1nc(C)c(I)s1
T/C [1]: 93 % of control
T/C [3]: 98 % of control
T/C [5]: 97 % of control
T/C [6]: 93 % of control
T/C [8]: 94 % of control
T/C [9]: 104 % of control
